What was measured:
Assay type in all cases: cell-based
EGFR WT (Ba/F3 cells) = target: T1, EGFR WT (Ba/F3 cells) (Homo sapiens, UniProt P00533); assay: Inhibitor activity on EGFR-dependent cell growth (CellTiter-Glo, 72 h), Ba/F3 EGFR WT; conditions: read-out: BaF3 WT IC50
T1 construct: expressed in transfected cells; host or cells: Ba/F3 (murine pro-B cells), retroviral transduction, puromycin selection, maintained with EGF
Procedure, shortened: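 This growth assay used Ba/F3 cells that depend on wild-type EGFR and are kept in EGF without IL3. Compounds were made up as 10 mM DMSO stocks and diluted 3-fold over 10 points. 120 nL went onto 600 cells/well. After 72 hours, 40 μL CellTiter-Glo was added and luminescence read on EnVision after 30 min.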

[1] = target: T2, EGFR exon 20 NPG Ins D770_N771 (Ba/F3 cells) (Homo sapiens, UniProt P00533, INS770NPG); assay: Inhibitor activity on EGFR-dependent cell growth (CellTiter-Glo, 72 h), Ba/F3 EGFR exon 20 NPG Ins; conditions: read-out: BaF3 NPG IC50
T2 construct: expressed in transfected cells; host or cells: Ba/F3 (murine pro-B cells), retroviral transduction, puromycin selection, IL3-independent pool
Procedure, shortened: (§1)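 IC50s derive from a sigmoidal dose–response fit of CellTiter-Glo signal. The signal was normalised between […]-treated cells and cell-free medium. Ba/F3 mutant-EGFR cells, seeded at 400–800/well depending on the line, had 72 h of exposure to a 10-point, 3-fold compound series.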

[2] = target: T3, EGFR exon 20 ASV Ins V769_D770 (Ba/F3 cells) (Homo sapiens, UniProt P00533, INS769ASV); assay: Inhibitor activity on EGFR-dependent cell growth (CellTiter-Glo, 72 h), Ba/F3 EGFR exon 20 ASV Ins; conditions: read-out: BaF3 ASV IC50
T3 construct: expressed in transfected cells; host or cells: Ba/F3 (murine pro-B cells), retroviral transduction, puromycin selection, IL3-independent pool
Procedure, shortened: as §1

[3] = target: T4, EGFR exon 20 SVD Ins D770_N771 (Ba/F3 cells) (Homo sapiens, UniProt P00533, INS770SVD); assay: Inhibitor activity on EGFR-dependent cell growth (CellTiter-Glo, 72 h), Ba/F3 EGFR exon 20 SVD Ins; conditions: read-out: BaF3 SVD IC50
T4 construct: expressed in transfected cells; host or cells: Ba/F3 (murine pro-B cells), retroviral transduction, puromycin selection, IL3-independent pool
Procedure, shortened: as §1

EGFR (CUTO14 cells) = EGFR (CUTO14 cells) (Homo sapiens, UniProt P00533); assay: Inhibitor activity on EGFR phosphorylation (pEGFR AlphaLISA, 2 h), CUTO14 cells
Text: Example B. Inhibitor Activity on EGFR phosphorylation (pEGFR)
EGFR mutant Ba/F3 cells were generated by transduction with retrovirus containing vectors expressing EGFR L858R, EGFR exon 19del, EGFR L858R/C797S, EGFR exon 20 NPG Ins D770_N771, EGFR exon 20 ASV Ins V769_D770, or EGFR exon 20 SVD Ins D770_N771 genes along with a puromycin selection marker. Transduced cells are selected with puromycin for 7 days and are then be transferred into culture media without Interleukin 3 (IL3). Surviving cells are confirmed to express EGFR by Western blot and maintained as a pool. CUTO14 cells were obtained from Dr. Robert C. Doebele at the University of Colorado. The IC50 date are included in Table 6 and Table 7.
(§2) 1.1 Cells are harvested from flask into cell culture medium and the cell number counted.
1.2 Cells are diluted with culture medium to the desired density and 40 μL of cell suspension is added into each well of 384-well cell culture plate and the seeding density is 50K cells/well (Ba/F3) or 12.5K cells/well (CUTO14).
(§3) 2 Compound Preparation and Treatment
(§4) 2.1 Test compounds are dissolved to 10 mM in a DMSO stock solution. 45 μL of stock solution is transferred to a 384 polypropylene plate (pp-plate). Perform 3-fold, 10-point dilution via transferring 15 μL compound into 30 μL DMSO using a TECAN (EVO200) liquid handler.
(§5) 2.2 Spin plates at room temperature at 1,000 RPM for 1 minute.
2.3 Transfer 5 nL of diluted compound from compound source plate into the cell plate.
2.4 After compound treatment for 2 hours, perform pEGFR detection by AlphaLISA for compound treatment plates as described in “Detection” section.
3 Detection by pEGFR AlphaLISA (Perkin-Elmer)
3.1 Plates are removed from incubators and equilibrated at room temperature for 10 minutes, and media was removed
3.2 10 μL of lysis buffer is added and plates shaken at 600 rpm for 1 hr.
3.3 Prepare acceptor mix just before use and dispense 5 μL of acceptor mix to all the wells. Shake 350 rpm for Ihr in the dark
3.4 Prepare donor mix under low light conditions prior to use. Dispense 5 μL of donor mix to all the wells. Mix well on the shaker, seal and wrap in aluminum foil and incubate 1.5 hrs at room temperature in the dark
3.5 Transfer 18.5 μL mixture to OptiPlate 384, and read using an Envision. The IC50 date were included in Table 6 and Table 7.

EGFR L858R (Ba/F3 cells) = target: T5, EGFR L858R (Ba/F3 cells) (Homo sapiens, UniProt P00533, L858R); assay: Inhibitor activity on EGFR-dependent cell growth (CellTiter-Glo, 72 h), Ba/F3 EGFR L858R; conditions: read-out: BaF3 L858R IC50
T5 construct: expressed in transfected cells; host or cells: Ba/F3 (murine pro-B cells), retroviral transduction, puromycin selection, IL3-independent pool
Text: (§6) Example A. Inhibitor Activity on EGFR-Dependent Cell Growth
(§7) Cell lines are generated by transducing Ba/F3 cells with retroviruses containing vectors with EGFR WT, EGFR L858R, EGFR exon 19del, EGFR L858R/C797S, EGFR exon 20 NPG Ins D770_N771, EGFR exon 20 ASV Ins V769_D770, EGFR exon 20 SVD Ins D770_N771, or EGFR exon 20 FQEA Ins A763_V764 genes and a puromycin selection marker. Transduced cells are selected with puromycin for 7 days and are then be transferred into culture media without Interleukin 3 (IL3). EGFR WT cells are maintained with supplemental EGF. Surviving cells are confirmed to express EGFR by Western blot and maintained as a pool. The IC50 date were included in Table 6 and Table 7.
as §2
(§8) 1.2 Cells are diluted with culture medium to the desired density and 40 μL of cell suspension is added into each well of 384-well cell culture plate and the seeding density is 800 (FQEA, exon 19del), 600 (WT, NPG, L858R/C797S), or 400 (ASV, SVD, L858R) cells/well.
as §3, §4, §5
(§9) 2.3 Transfer 120 nL of diluted compound from compound source plate into the cell plate.
(§10) 2.4 After compound treatment for 72 hours, perform CTG detection for compound treatment plates as described in “Detection” section.
(§11) 3.1 Plates are removed from incubators and equilibrated at room temperature for 15 minutes.
(§12) 3.2 Thaw the CellTiter Glo reagents and allow to equilibrate to room temperature before the experiment.
(§13) 3.3 Add 40 μL of CellTiter-Glo reagent into each well (at 1:1 to culture medium). Then place the plates at room temperature for 30 min followed by reading on EnVision.
(§14) 4.1 Inhibition activity is calculated following the formula below:
(§15) % Inhibition=100×(LumHC−LumSample)/(LumHC−LumLC) • where HC is obtained from cells treated with 0.1% DMSO only; and LC is obtained from culture medium only.
(§16) 4.2 2. Calculate the IC50 by fitting the Curve using Xlfit (v5.3.1.3), equation 201.
(§17) Y=Bottom+(Top−Bottom)/(1+10^((Log IC50−X)*HillSlope))

[4] = target: EGFR exon 19del (Ba/F3 cells) (Homo sapiens, UniProt P00533); assay: Inhibitor activity on EGFR-dependent cell growth (CellTiter-Glo, 72 h), Ba/F3 EGFR exon 19del; conditions: Ba/F3 EGFR exon 19del cell growth, read-out: BaF3 Del19 IC50
Text: as §6, §7, §2, §8, §3, §4, §5, §9, §10, §11, §12, §13, §14, §15, §16, §17

T1 sequence (P00533 25-1210): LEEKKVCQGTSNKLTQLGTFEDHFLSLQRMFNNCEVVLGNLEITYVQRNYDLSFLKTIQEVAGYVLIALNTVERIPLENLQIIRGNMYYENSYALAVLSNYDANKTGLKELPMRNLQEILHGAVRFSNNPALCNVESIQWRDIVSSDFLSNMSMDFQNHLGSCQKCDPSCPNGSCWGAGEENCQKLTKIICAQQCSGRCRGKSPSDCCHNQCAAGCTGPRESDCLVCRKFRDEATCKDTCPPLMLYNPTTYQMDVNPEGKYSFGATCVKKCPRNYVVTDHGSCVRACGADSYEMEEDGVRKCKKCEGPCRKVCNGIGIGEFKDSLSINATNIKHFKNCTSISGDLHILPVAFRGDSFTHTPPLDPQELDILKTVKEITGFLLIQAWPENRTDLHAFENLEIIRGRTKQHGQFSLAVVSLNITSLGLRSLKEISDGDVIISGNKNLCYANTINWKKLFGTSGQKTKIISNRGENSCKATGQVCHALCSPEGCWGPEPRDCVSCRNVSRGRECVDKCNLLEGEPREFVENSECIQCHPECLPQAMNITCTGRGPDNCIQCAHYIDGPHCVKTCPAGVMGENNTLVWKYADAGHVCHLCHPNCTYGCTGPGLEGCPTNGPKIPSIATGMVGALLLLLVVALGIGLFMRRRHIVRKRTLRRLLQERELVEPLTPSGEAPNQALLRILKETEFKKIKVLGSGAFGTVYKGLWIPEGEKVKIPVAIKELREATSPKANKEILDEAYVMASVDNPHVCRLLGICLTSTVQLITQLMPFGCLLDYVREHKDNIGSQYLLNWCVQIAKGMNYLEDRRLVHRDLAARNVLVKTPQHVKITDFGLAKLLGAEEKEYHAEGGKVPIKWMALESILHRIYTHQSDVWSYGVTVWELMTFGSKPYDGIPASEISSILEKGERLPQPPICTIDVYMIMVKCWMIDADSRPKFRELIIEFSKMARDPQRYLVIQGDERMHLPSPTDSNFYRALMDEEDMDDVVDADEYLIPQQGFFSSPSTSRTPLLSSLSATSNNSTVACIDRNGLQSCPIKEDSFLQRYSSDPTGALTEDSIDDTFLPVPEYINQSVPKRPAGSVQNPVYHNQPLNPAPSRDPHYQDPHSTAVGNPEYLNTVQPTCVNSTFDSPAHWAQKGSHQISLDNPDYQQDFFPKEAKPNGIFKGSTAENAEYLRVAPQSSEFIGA
T3 sequence (P00533 with tags, fused parts or gaps INS769ASV): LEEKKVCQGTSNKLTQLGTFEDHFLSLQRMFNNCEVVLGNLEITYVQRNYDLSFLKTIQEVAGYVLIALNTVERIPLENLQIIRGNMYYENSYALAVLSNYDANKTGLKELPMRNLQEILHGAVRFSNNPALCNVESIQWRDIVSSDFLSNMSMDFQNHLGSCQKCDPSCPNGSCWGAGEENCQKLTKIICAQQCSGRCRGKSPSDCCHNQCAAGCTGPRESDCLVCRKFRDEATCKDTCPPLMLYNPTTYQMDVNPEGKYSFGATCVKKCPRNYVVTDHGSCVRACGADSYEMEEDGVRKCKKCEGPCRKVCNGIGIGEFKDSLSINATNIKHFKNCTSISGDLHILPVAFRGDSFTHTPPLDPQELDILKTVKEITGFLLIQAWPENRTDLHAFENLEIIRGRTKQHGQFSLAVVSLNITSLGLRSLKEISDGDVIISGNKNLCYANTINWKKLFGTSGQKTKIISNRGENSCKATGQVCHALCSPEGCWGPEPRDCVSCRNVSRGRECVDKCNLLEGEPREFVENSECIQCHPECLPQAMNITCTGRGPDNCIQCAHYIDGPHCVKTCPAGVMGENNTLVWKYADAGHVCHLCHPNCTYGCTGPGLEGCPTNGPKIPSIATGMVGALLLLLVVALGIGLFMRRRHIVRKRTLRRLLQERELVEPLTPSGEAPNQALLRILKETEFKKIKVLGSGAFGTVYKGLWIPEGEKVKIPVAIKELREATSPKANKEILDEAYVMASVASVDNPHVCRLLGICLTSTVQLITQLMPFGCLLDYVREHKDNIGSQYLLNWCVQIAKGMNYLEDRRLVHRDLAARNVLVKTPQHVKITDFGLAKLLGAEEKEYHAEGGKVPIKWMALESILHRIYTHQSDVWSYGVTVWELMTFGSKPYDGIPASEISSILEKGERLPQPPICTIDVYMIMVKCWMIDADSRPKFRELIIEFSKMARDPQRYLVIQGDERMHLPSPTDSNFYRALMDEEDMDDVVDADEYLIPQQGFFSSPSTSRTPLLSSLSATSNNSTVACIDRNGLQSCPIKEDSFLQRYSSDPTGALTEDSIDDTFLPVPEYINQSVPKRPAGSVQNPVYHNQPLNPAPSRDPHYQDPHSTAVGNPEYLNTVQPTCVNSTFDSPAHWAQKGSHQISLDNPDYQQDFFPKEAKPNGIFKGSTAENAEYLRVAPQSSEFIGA
EGFR (CUTO14 cells), sequence (P00533 with tags, fused parts or gaps DUP767-769): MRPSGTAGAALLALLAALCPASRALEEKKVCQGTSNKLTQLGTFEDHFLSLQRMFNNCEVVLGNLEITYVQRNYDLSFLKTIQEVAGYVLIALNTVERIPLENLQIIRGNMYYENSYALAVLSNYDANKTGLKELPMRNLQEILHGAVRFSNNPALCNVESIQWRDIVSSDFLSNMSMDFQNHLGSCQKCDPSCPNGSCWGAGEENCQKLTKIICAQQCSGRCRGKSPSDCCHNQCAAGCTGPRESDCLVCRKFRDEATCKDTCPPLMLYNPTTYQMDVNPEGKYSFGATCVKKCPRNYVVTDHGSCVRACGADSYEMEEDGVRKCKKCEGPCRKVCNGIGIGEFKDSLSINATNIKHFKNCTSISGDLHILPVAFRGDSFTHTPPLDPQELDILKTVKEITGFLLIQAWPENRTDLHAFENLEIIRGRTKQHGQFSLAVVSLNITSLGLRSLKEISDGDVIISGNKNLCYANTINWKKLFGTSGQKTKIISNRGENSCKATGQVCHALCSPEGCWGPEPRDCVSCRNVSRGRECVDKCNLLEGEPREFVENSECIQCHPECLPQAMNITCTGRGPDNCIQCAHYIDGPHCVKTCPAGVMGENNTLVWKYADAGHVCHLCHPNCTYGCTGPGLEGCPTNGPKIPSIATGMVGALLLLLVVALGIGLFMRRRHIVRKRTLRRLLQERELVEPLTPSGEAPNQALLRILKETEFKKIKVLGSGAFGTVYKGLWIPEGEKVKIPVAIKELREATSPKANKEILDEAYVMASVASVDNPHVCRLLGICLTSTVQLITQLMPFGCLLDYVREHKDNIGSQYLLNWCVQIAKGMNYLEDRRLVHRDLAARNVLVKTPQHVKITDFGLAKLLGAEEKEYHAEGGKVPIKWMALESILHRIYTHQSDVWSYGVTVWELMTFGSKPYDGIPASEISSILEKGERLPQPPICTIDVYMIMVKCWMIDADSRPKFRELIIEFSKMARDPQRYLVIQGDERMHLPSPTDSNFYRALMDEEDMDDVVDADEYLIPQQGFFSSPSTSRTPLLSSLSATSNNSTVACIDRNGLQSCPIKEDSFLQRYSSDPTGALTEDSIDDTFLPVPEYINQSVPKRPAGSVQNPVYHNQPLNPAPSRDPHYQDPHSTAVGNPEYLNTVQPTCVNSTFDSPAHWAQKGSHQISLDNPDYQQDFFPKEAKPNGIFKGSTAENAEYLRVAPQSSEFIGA
T4 sequence (P00533 with tags, fused parts or gaps INS770SVD): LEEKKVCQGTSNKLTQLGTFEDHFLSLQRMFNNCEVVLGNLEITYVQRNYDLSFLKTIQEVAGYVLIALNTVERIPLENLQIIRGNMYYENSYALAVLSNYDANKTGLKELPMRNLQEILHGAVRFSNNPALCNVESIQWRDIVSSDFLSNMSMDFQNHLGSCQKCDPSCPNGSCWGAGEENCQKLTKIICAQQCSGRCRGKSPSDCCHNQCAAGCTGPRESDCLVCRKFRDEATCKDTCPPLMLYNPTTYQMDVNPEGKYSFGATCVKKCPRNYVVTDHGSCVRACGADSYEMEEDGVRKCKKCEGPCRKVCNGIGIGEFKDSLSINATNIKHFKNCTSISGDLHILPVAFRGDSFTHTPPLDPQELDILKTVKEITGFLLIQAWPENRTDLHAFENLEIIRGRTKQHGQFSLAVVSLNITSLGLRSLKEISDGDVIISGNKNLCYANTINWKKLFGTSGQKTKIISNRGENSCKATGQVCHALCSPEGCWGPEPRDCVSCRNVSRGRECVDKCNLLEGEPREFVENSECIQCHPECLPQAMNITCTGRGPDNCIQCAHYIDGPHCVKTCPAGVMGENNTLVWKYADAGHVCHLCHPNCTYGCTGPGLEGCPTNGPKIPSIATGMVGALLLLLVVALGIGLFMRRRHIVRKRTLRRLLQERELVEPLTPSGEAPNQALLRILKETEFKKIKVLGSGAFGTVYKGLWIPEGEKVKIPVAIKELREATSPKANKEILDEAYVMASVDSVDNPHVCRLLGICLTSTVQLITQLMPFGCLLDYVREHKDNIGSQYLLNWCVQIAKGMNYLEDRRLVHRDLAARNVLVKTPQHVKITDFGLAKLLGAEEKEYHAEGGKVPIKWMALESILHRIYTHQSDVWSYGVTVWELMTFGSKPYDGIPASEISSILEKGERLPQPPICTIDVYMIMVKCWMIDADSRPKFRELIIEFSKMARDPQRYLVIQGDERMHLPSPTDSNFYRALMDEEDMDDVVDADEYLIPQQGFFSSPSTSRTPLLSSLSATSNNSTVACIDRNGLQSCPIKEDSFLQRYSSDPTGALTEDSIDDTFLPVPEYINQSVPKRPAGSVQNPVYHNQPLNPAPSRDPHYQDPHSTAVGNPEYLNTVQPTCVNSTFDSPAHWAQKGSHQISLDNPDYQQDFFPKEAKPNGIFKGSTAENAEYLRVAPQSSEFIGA

Structure (SMILES)	IC50 (EGFR WT (Ba/F3 cells)) [nM]	IC50 [1] [nM]	IC50 [2] [nM]	IC50 [3] [nM]	IC50 (EGFR (CUTO14 cells)) [nM]	IC50 (EGFR L858R (Ba/F3 cells)) [nM]	IC50 [4] [nM]
COc1c(Cl)cccc1Nc1c(-c2ccncc2F)[nH]c2c1C(=O)NCC2C[C@@H]1CO[C@@H](CN(C)C)CO1 (single isomer, unassigned) [Compound 562, (7R*)-3-[(3-chloro-2-methoxyphenyl)amino]-7-{[(2R,5S)-5-[(dimethylamino)methyl]-1,4-dioxan-2-yl]methyl}-2-(3-fluoropyridin-4-yl)-1H,5H,6H,7H-pyrrolo[3,2-c]pyridin-4-one]	100 to 1000	< 100	< 100	< 100	< 100	–	–
COc1c(Cl)cccc1Nc1c(-c2ccncc2)[nH]c2c1C(=O)NCC2C[C@@H]1CN(C)CCO1 (single isomer, unassigned) [Compound 646]	> 1000	> 1000	> 1000	> 1000	< 100	–	–
COc1c(Cl)cccc1Nc1c(-c2ccnc(C)n2)[nH]c2c1C(=O)NC[C@@H]2C[C@@H]1COCCO1 [Compound 552, (7S)-3-[(3-chloro-2-methoxyphenyl)amino]-7-[(2R)-1,4-dioxan-2-ylmethyl]-2-(2-methylpyrimidin-4-yl)-1H,5H,6H,7H-pyrrolo[3,2-c]pyridin-4-one]	> 1000	< 100	–	–	< 100	–	–
C=CC(=O)N1CCC2(CC1)CNC(=O)c1c2[nH]c(-c2ccncn2)c1Nc1cccc(F)c1OC [Compound 611, 3′-[(3-fluoro-2-methoxyphenyl)amino]-1-(prop-2-enoyl)-2′-(pyrimidin-4-yl)-5′,6′-dihydro-1′H-spiro[piperidine-4,7′-pyrrolo[3,2-c]pyridin]-4′-one]	< 100	< 100	< 100	< 100	< 100	< 100	< 100
COc1c(Cl)cccc1Nc1c(-c2ccncc2)[nH]c2c1C(=O)NC[C@H]2C[C@@H]1CN(C)CCO1 [Compound 645, (7R)-3-[(3-chloro-2-methoxyphenyl)amino]-7-{[(2R)-4-methylmorpholin-2-yl]methyl}-2-(pyridin-4-yl)-1H,5H,6H,7H-pyrrolo[3,2-c]pyridin-4-one]	> 1000	< 100	< 100	< 100	< 100	–	–
COc1c(Cl)cccc1Nc1c(-c2ccnc(Nc3cnn(C)n3)n2)[nH]c2c1C(=O)NCC2 [compound 592, 3-[(3-chloro-2-methoxyphenyl)amino]-2-{2-[(2-methyl-1,2,3-triazol-4-yl)amino]pyrimidin-4-yl}-1H,5H,6H,7H-pyrrolo[3,2-c]pyridin-4-one]	100 to 1000	< 100	< 100	< 100	< 100	–	–
COc1c(F)cccc1Nc1c(-c2ccnc(Nc3cnn(C)n3)n2)[nH]c2c1C(=O)NCC2 [compound 593, 3-[(3-fluoro-2-methoxyphenyl)amino]-2-{2-[(2-methyl-1,2,3-triazol-4-yl)amino]pyrimidin-4-yl}-1H,5H,6H,7H-pyrrolo[3,2-c]pyridin-4-one]	100 to 1000	< 100	< 100	< 100	< 100	–	–
C=CC(=O)N1CCC2(CC1)CNC(=O)c1c2[nH]c(-c2ccncc2F)c1Nc1cc(F)cc(F)c1OC [compound 610]	100 to 1000	< 100	< 100	< 100	< 100	–	–
C=CC(=O)N1CCC2(CC1)CNC(=O)c1c2[nH]c(-c2ccncn2)c1Nc1cc(F)cc(F)c1OC [compound 612]	100 to 1000	< 100	< 100	< 100	< 100	–	–
C=CC(=O)N1CCC2(CC1)CNC(=O)c1c2[nH]c(-c2ccnc(C)n2)c1Nc1cc(F)cc(F)c1OC [compound 641]	100 to 1000	< 100	< 100	< 100	< 100	–	–
C=CC(=O)N1CCC2(CC1)CNC(=O)c1c2[nH]c(-c2ccnc(C)n2)c1Nc1cccc(Cl)c1OC [compound 643]	< 100	< 100	< 100	< 100	< 100	–	–
C=CC(=O)N1CCC2(CC1)CNC(=O)c1c2[nH]c(-c2ccnc(C)n2)c1Nc1cccc(F)c1OC [compound 644]	< 100	< 100	< 100	< 100	< 100	–	–
COc1c(F)cccc1Nc1c(-c2ccnc(C)n2)[nH]c2c1C(=O)NCC21CCN(C(=O)/C=C/CN(C)C)CC1 [compound 649]	> 1000	100 to 1000	100 to 1000	100 to 1000	100 to 1000	–	–
COc1c(F)cccc1Nc1c(-c2ccncn2)[nH]c2c1C(=O)NCC21CCN(C(=O)/C=C/CN(C)C)CC1 [compound 650]	> 1000	100 to 1000	100 to 1000	100 to 1000	< 100	–	–
COc1c(Cl)cc(F)cc1Nc1c(-c2ccnc(C)n2)[nH]c2c1C(=O)NC[C@H]2C[C@@H]1COCCO1 [compound 652]	> 1000	100 to 1000	100 to 1000	100 to 1000	< 100	–	–
COc1c(Cl)cccc1Nc1c(-c2ccncc2F)[nH]c2c1C(=O)NC[C@@H]2C[C@@H]1CN(C)CCO1 [compound 790]	100 to 1000	< 100	< 100	< 100	< 100	–	–
